Measurements published in patent US11286268B1, “EIF4E-inhibiting compounds and methods” (EFFECTOR THERAPEUTICS, INC., priority 2019, dated 2022).
Where two headings read alike, the source gives them in different places.

Molecular target: recombinant eIF4E (Homo sapiens (Human), UniProt P06730)
Test: Fluorescence polarization competition assay for eIF4E binding potency
Procedure: Compounds were screened for eIF4E binding potency using a fluorescence polarization competition assay. All binding reactions were performed in fluorescence polarization buffer (FPB) containing 20 mM Tris pH 7.5, 100 mM NaCl, 1 mM DTT, and 0.02% Tween-20. Final binding reactions contained 75 nM recombinant eIF4E (Beryllium, custom order), 20 nM EDA-m^7GDP-ATTO-550 (Jena Bioscience, NU-827-550) and varying concentrations of the inhibitory compound of interest. Final DMSO concentration in each reaction was 1%.
eIF4E protein was pre-incubated with EDA-m^7GDP-ATTO-550 in FPB at 2× concentrations for 5 minutes prior to the addition of compounds. Compounds (100×) were prepared using 3-fold serial dilutions in 100% DMSO, and subsequently diluted 1:50 in FPB to produce 2× stocks. 50 μl of 2× eIF4E/EDA-m^7GDP-ATTO-550 were transferred to the wells of a 96-well half-area black flat bottom polystyrene plate. 50 μl of 2× test compound were added, and binding reactions were allowed to equilibrate for 30 minutes at room temperature while protected from light. The fluorescent polarization signal was detected using a Victor 2 multi-label counter (Perkin Elmer) and the concentration necessary to achieve inhibition of eIF4E/EDA-m^7GDP-ATTO-550 binding by 50% (IC50) was calculated using data from an 8-point compound dilution series.
In Table 4A, IC50 values of less than 0.05 μM are labelled as “+++”, from 1 to 0.05 μM are labelled as “++”, and greater than 1 μM are labelled as “+”. ND=not determined.

[1] = fluorescence polarization competition, 75 nM recombinant eIF4E, 20 nM EDA-m7GDP-ATTO-550, IC50 class, read-out: elF4E FP
[2] = inhibition of eIF4E/EDA-m7GDP-ATTO-550 binding by 50%, Table 4B calculated values, read-out: IC50

Sequence of recombinant eIF4E (P06730 whole entry): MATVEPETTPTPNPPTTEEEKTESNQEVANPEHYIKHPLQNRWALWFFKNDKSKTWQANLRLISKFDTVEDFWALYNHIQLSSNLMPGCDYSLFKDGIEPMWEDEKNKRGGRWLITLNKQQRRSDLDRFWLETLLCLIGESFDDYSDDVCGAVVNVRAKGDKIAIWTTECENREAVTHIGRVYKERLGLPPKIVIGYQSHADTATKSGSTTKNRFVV

IC50 [1] [nM] | IC50 [2] [nM] | SMILES
< 50 | 9.78 | Cc1nc2cc(C#N)c(F)c(C#N)c2c(=O)n1CCOc1ccc(Cl)cc1-c1ccnc2c(C(=O)O)csc12 [compound 240]
< 50 | 4.87 | Cc1nc2c(F)cc(F)c(C#N)c2c(=O)n1CCOc1ccc(Cl)cc1-c1ccnc2c(C(=O)O)csc12 [compound 241]
< 50 | 20.3 | Cc1nc2cc(Cl)c(F)c(C#N)c2c(=O)n1CCOc1ccc(Cl)cc1-c1ccnc2c(C(=O)O)csc12 [compound 242]
< 50 | 31.2 | Cc1nc2ccc(Cl)c(C#N)c2c(=O)n1CCOc1ccc(Cl)cc1-c1ccnc2c(C(=O)O)csc12 [compound 244]
< 50 | 25.6 | Cc1nc2ccc(F)c(C#N)c2c(=O)n1CCOc1ccc(Cl)cc1-c1ccnc2c(C(=O)O)csc12 [compound 245]
< 50 | 43 | Cc1nc2cc(C(F)(F)F)c(F)c(C#N)c2c(=O)n1CCOc1ccc(Cl)cc1-c1ccnc2c(C(=O)O)csc12 [compound 246]
50 to 1000 | 61.1 | Cc1nc2cc(Cl)c(S(=O)(=O)N(C)C)c(C#N)c2c(=O)n1CCOc1ccc(Cl)cc1-c1ccnc2c(C(=O)O)csc12 [compound 247]
50 to 1000 | 52.3 | Cc1nc2ccc(S(=O)(=O)N3CCC3)c(C#N)c2c(=O)n1CCOc1ccc(Cl)cc1-c1ccnc2c(C(=O)O)csc12 [compound 248]
< 50 | 19.8 | Cc1nc2ccc(S(=O)(=O)N3CCCC3)c(C#N)c2c(=O)n1CCOc1ccc(Cl)cc1-c1ccnc2c(C(=O)O)csc12 [compound 249]
< 50 | 43.7 | CCN(CC)S(=O)(=O)c1ccc2nc(C)n(CCOc3ccc(Cl)cc3-c3ccnc4c(C(=O)O)csc34)c(=O)c2c1C#N [compound 250]
< 50 | – | Cc1nc2ccc(S(=O)(=O)N3CCCCC3)c(C#N)c2c(=O)n1CCOc1ccc(Cl)cc1-c1ccnc2c(C(=O)O)csc12 [compound 251]
< 50 | 42 | Cc1nc2ccc(S(=O)(=O)NCc3ccccc3)c(C#N)c2c(=O)n1CCOc1ccc(Cl)cc1-c1ccnc2c(C(=O)O)csc12 [compound 252]
< 50 | 46 | CCN(Cc1ccccc1)S(=O)(=O)c1ccc2nc(C)n(CCOc3ccc(Cl)cc3-c3ccnc4c(C(=O)O)csc34)c(=O)c2c1C#N [compound 253]
< 50 | 20.4 | Cc1nc2cccc(C#N)c2c(=O)n1CCOc1ccc(Cl)cc1-c1ccnc2c(C(=O)O)csc12 [compound 254]
50 to 1000 | 69.2 | Cc1nc2cc(Cl)c(Cl)c(C#N)c2c(=O)n1CC#Cc1ccc(Cl)cc1-c1ccnc2c(C(=O)O)csc12 [compound 257]
< 50 | 20.4 | Cc1nc2cnc(C3CCC(F)(F)CC3)c(C#N)c2c(=O)n1CCOc1ccc(Cl)cc1-c1ccnc2c(C(=O)O)csc12 [compound 260]
< 50 | 42 | Cc1nc2cc(C(F)(F)F)c(CN(C)C)c(C#N)c2c(=O)n1CCOc1ccc(Cl)cc1-c1ccnc2c(C(=O)O)csc12 [compound 261]
< 50 | 24.6 | Cc1nc2cc(C(F)(F)Cl)cc(C#N)c2c(=O)n1CCOc1ccc(Cl)cc1-c1ccnc2c(C(=O)O)csc12 [compound 264]
< 50 | 13.2 | Cc1nc2cc(C(F)(F)F)cc([N+](=O)[O-])c2c(=O)n1CCOc1ccc(Cl)cc1-c1ccnc2c(C(=O)O)csc12 [compound 271]
< 50 | 22.8 | Cc1nc2cc(F)c(C#N)c(C#N)c2c(=O)n1CCOc1ccc(Cl)cc1-c1ccnc2c(C(=O)O)csc12 [compound 276]
< 50 | 30.7 | Cc1nc2cc(S(C)(=O)=O)c(Cl)c(C#N)c2c(=O)n1CCOc1ccc(Cl)cc1-c1ccnc2c(C(=O)O)csc12 [compound 277]
< 50 | 12.7 | Cc1nc2cc(S(C)(=O)=O)c(F)c(C#N)c2c(=O)n1CCOc1ccc(Cl)cc1-c1ccnc2c(C(=O)O)csc12 [compound 278]
< 50 | 17.8 | Cc1nc2cc(F)c(S(C)(=O)=O)c(C#N)c2c(=O)n1CCOc1ccc(Cl)cc1-c1ccnc2c(C(=O)O)csc12 [compound 279]
< 50 | 41.2 | Cc1nc2cc(S(=O)(=O)N(C)C)c(F)c(C#N)c2c(=O)n1CCOc1ccc(Cl)cc1-c1ccnc2c(C(=O)O)csc12 [compound 280]
< 50 | 37.5 | Cc1nc2cc(F)c(S(=O)(=O)N(C)C)c(C#N)c2c(=O)n1CCOc1ccc(Cl)cc1-c1ccnc2c(C(=O)O)csc12 [compound 281]
< 50 | 17.1 | Cc1nc2ccc(S(=O)(=O)N3CCC(F)(F)CC3)c(C#N)c2c(=O)n1CCOc1ccc(Cl)cc1-c1ccnc2c(C(=O)O)csc12 [compound 282]
< 50 | 40.6 | Cc1nc2ccc(S(=O)(=O)N(C)Cc3ccccc3)c(C#N)c2c(=O)n1CCOc1ccc(Cl)cc1-c1ccnc2c(C(=O)O)csc12 [compound 283]
< 50 | 46.1 | Cc1nc2c(F)cc(S(=O)(=O)N(C)C)c(C#N)c2c(=O)n1CCOc1ccc(Cl)cc1-c1ccnc2c(C(=O)O)csc12 [compound 288]
< 50 | 42.7 | Cc1nc2cc(Cl)c(Cl)c(C#N)c2c(=O)n1CCOc1ccc(C#N)cc1-c1ccnc2c(C(=O)O)csc12 [compound 290]

The next lines start with the compound.

SMILES | IC50 [1] [nM] | IC50 [2] [nM]
Cc1nc2cc(C(F)(F)F)cc(C#N)c2c(=O)n1C/C=C/c1ccc(Cl)cc1-c1ccnc2c(C(=O)O)csc12 [compound 255] | 50 to 1000 | 78.5
Cc1nc2cc(Cl)c(Cl)c(C#N)c2c(=O)n1C/C=C/c1ccc(Cl)cc1-c1ccnc2c(C(=O)O)csc12 [compound 256] | 50 to 1000 | 104
Cc1nc2cc(C#N)cc(C#N)c2c(=O)n1CC#Cc1ccc(Cl)cc1-c1ccnc2c(C(=O)O)csc12 [compound 258] | < 50 | 37.7
Cc1nc2cc(C(F)(F)F)cc(C#N)c2c(=O)n1CCOc1ncc(Cl)cc1-c1ccnc2c(C(=O)O)csc12 [compound 259] | 50 to 1000 | > 1000
Cc1c(F)c2cc(C(F)(F)F)cc(C#N)c2c(=O)n1CCOc1ccc(Cl)cc1-c1ccnc2c(C(=O)O)csc12 [compound 262] | < 50 | –
Cc1c(C#N)c2cc(C(F)(F)F)cc(C#N)c2c(=O)n1CCOc1ccc(Cl)cc1-c1ccnc2c(C(=O)O)csc12 [compound 263] | < 50 | –
Cc1nc2cc(C(F)(F)F)cc(C#N)c2c(=O)n1CCOc1ccc(Cl)cc1-c1snc2c(C(=O)O)csc12 [compound 265] | 50 to 1000 | 77.1
Cc1nc2cc(C(F)(F)F)cc(C#N)c2c(=O)n1CCOc1ccc(Cl)cc1-c1ccnc2c(C(=O)O)c(Cl)sc12 [compound 266] | < 50 | 26.6
C#Cc1sc2c(-c3cc(Cl)ccc3OCCn3c(C)nc4cc(C(F)(F)F)cc(C#N)c4c3=O)ccnc2c1C(=O)O [compound 267] | 50 to 1000 | 74.1
Cc1c(C(F)(F)F)c2cc(C(F)(F)F)cc(C#N)c2c(=O)n1CCOc1ccc(Cl)cc1-c1ccnc2c(C(=O)O)csc12 [compound 268] | < 50 | 34.1
Cc1c(C(F)F)c2cc(C(F)(F)F)cc(C#N)c2c(=O)n1CCOc1ccc(Cl)cc1-c1ccnc2c(C(=O)O)csc12 [compound 269] | < 50 | 15.6
Cc1c([N+](=O)O)c2cc(C(F)(F)F)cc(C#N)c2c(=O)n1CCOc1ccc(Cl)cc1-c1ccnc2c(C(=O)O)csc12 [compound 270] | < 50 | –
Cc1c(F)c2cc(C#N)cc(C#N)c2c(=O)n1CCOc1ccc(Cl)cc1-c1ccnc2c(C(=O)O)csc12 [compound 273] | < 50 | 30.2
C=S(C)(=O)c1cc(C#N)c2c(=O)n(CCOc3ccc(Cl)cc3-c3ccnc4c(C(=O)O)csc34)c(C)c(F)c2c1 (stereo not shown) [compound 274] | < 50 | 18.8
Cc1nc2c(C3CCC(F)(F)CC3)ncc(C#N)c2c(=O)n1CCOc1ccc(Cl)cc1-c1ccnc2c(C(=O)O)csc12 [compound 284] | < 50 | 19.6
Cc1nc2cc(C(F)(F)F)cc(C#N)c2c(=O)n1CCOc1ccncc1-c1ccnc2c(C(=O)O)csc12 [compound 285] | 50 to 1000 | 72.5
Cc1nc2cc(C#N)cc(C#N)c2c(=O)n1C/C=C/c1ccc(Cl)cc1-c1ccnc2c(C(=O)O)csc12 [compound 286] | 50 to 1000 | 183
Cc1nc2cc(C(F)(F)F)cc(C#N)c2c(=O)n1CCOc1ccc(C#N)cc1-c1ccnc2c(C(=O)O)csc12 [compound 287] | < 50 | 47.8
Cc1nc2cc(C(F)(F)F)cc(C#N)c2c(=O)n1CCOc1cc(F)c(C#N)cc1-c1ccnc2c(C(=O)O)csc12 [compound 289] | < 50 | 19.1
Cc1nc2cc(C(F)(F)F)cc(C#N)c2c(=O)n1CCOc1cnc(C#N)cc1-c1ccnc2c(C(=O)O)csc12 [compound 291] | 50 to 1000 | 99.5
